Measured values from ChEMBL document CHEMBL1201862, “PubChem BioAssay data set” (2004).
Calls of active or inactive are those of the source.

Tests used:
[1] = Luminescence-based cell-based high throughput dose response assay to identify activators of the DAF-12 from the parasite S. stercoralis (ssDAF-12).; format: functional
[2] = molecular target: T1, Oxysterols receptor LXR-beta (Homo sapiens, UniProt P55055); test: LXR agonists, Gal4 luciferase reporter, dose response, counter-screen for ssDAF-12 agonist project, cell-based, luminescence, HEK293, S. stercoralis campaign (AID 720737); format: functional; details: read-out: IC50 (the source's name)
T1 sequence (P55055 whole entry): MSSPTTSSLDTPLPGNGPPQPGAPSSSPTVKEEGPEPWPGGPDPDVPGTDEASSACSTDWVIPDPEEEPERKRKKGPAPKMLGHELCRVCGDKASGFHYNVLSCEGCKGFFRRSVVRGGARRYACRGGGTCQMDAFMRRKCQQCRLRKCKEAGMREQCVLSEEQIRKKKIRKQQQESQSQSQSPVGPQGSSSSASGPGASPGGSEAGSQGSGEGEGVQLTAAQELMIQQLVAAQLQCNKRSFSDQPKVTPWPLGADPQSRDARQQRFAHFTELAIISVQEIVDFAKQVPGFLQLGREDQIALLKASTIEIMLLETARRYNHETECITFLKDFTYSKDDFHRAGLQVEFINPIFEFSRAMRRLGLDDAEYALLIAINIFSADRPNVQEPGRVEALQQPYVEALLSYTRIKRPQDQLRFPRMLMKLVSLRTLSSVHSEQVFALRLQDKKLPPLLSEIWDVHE

[3] = molecular target: Metabotropic glutamate receptor 5 (Rattus norvegicus, UniProt P31424); test: Identification of a glycine sulfonamide based non-MPEP site positive allosteric potentiator (PAM) of mGlu5 (calcium_assay).; format: functional
Metabotropic glutamate receptor 5, sequence (P31424 whole entry): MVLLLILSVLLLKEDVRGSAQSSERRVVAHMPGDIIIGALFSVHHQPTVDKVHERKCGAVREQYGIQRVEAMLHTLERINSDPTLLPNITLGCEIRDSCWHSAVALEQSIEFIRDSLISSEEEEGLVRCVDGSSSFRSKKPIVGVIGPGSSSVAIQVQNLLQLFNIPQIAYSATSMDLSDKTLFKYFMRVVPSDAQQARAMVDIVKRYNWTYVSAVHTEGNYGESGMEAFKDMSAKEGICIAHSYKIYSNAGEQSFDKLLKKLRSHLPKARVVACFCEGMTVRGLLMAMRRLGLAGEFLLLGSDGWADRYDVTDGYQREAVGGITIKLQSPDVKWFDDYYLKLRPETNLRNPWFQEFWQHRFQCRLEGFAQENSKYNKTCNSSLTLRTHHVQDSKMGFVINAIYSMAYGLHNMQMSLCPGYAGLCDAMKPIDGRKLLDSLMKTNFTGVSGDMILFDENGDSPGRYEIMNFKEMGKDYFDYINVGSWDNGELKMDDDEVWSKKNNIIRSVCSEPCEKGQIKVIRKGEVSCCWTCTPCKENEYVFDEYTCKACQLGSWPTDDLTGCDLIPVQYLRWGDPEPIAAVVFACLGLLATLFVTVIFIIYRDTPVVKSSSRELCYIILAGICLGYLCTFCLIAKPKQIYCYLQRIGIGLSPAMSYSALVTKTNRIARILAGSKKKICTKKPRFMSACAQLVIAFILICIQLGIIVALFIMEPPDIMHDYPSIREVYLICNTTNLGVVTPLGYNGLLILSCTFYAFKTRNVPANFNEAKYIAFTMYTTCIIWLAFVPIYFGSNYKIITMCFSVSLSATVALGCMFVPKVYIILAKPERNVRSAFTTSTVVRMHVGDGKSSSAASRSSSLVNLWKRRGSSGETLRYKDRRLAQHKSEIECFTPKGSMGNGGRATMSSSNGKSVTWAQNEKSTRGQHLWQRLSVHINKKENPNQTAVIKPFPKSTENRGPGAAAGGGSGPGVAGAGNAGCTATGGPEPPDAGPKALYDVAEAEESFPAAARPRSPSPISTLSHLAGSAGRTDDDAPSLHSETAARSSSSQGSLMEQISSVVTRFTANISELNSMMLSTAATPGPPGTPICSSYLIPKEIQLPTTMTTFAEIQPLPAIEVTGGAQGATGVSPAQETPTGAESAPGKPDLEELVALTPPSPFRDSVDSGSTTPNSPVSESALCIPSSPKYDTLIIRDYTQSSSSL

[4] = HepG2 cell cytotoxicity, dose response, cytotoxicity control, plate reader, cherry-pick, antagonist series (AID 743416); format: functional, cell-based
[5] = LGR2 antagonists, dose response, cell-based, HEK293, CRE-luciferase reporter, cherry pick, set 2 (AID 743343); format: functional;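 note: transfected cells were stimulated with diluted bursicon conditioned medium after compound addition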
[6] = MC4R antagonists, dose response, counter-screen for LGR2 antagonist project, cell-based, plate reader, cherry pick (AID 743444); format: functional;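 note: transfected HEK 293 cells stimulated with alpha-MSH peptide; potency of inhibitors of the alpha-MSH evoked signal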
[7] = HEK293 cell cytotoxicity, dose response, cytotoxicity control, plate reader, cherry-picked samples (AID 743446); format: functional, cell-based
[8] = cells; details: HEK293
[9] = molecular target: Induced myeloid leukemia cell differentiation protein Mcl-1 (Homo sapiens, UniProt Q07820); format: functional
Induced myeloid leukemia cell differentiation protein Mcl-1, sequence (Q07820 whole entry): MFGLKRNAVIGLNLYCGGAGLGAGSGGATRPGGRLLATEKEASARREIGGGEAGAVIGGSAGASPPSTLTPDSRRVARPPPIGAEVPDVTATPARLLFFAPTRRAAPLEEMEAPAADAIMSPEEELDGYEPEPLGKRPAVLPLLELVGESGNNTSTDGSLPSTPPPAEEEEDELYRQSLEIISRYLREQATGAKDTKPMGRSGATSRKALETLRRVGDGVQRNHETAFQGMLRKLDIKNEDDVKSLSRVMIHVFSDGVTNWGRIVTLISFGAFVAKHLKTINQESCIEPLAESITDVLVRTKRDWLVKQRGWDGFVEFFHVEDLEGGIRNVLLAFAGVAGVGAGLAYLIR

[10] = molecular target: Albumin (Bos taurus, UniProt P02769); test: Counterscreen for inhibitors of T-cell receptor (TCR)-CD3 interaction: Fluorescence-based biochemical high throughput dose response assay to identify inhibitors of T-cell receptor (TCR)-CD3 interaction using a TAMRA-labeled BSA probe.; format: functional
Albumin, sequence (P02769 whole entry): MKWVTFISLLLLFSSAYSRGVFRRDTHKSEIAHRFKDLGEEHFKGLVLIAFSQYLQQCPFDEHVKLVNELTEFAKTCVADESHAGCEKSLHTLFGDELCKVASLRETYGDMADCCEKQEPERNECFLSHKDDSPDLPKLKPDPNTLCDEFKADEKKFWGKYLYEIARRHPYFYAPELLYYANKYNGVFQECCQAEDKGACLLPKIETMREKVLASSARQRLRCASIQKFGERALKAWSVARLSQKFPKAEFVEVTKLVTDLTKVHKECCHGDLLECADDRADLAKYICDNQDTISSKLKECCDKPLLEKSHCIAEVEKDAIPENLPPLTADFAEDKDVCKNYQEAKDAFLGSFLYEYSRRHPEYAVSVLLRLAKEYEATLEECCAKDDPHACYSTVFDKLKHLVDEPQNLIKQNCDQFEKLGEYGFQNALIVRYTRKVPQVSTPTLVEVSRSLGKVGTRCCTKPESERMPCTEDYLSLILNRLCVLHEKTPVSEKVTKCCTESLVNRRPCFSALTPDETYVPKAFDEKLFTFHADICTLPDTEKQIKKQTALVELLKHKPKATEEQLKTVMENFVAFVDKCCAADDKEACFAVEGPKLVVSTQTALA

[11] = molecular target: 1-phosphatidylinositol 4,5-bisphosphate phosphodiesterase gamma-1 (Homo sapiens, UniProt P19174); test: Counterscreen for inhibitors of phospholipase C isozymes (PLC-B3): Fluorescence-based biochemical high throughput dose response assay to identify inhibitors of phospholipase C isozymes (PLC-gamma1).
1-phosphatidylinositol 4,5-bisphosphate phosphodiesterase gamma-1, sequence (P19174 whole entry): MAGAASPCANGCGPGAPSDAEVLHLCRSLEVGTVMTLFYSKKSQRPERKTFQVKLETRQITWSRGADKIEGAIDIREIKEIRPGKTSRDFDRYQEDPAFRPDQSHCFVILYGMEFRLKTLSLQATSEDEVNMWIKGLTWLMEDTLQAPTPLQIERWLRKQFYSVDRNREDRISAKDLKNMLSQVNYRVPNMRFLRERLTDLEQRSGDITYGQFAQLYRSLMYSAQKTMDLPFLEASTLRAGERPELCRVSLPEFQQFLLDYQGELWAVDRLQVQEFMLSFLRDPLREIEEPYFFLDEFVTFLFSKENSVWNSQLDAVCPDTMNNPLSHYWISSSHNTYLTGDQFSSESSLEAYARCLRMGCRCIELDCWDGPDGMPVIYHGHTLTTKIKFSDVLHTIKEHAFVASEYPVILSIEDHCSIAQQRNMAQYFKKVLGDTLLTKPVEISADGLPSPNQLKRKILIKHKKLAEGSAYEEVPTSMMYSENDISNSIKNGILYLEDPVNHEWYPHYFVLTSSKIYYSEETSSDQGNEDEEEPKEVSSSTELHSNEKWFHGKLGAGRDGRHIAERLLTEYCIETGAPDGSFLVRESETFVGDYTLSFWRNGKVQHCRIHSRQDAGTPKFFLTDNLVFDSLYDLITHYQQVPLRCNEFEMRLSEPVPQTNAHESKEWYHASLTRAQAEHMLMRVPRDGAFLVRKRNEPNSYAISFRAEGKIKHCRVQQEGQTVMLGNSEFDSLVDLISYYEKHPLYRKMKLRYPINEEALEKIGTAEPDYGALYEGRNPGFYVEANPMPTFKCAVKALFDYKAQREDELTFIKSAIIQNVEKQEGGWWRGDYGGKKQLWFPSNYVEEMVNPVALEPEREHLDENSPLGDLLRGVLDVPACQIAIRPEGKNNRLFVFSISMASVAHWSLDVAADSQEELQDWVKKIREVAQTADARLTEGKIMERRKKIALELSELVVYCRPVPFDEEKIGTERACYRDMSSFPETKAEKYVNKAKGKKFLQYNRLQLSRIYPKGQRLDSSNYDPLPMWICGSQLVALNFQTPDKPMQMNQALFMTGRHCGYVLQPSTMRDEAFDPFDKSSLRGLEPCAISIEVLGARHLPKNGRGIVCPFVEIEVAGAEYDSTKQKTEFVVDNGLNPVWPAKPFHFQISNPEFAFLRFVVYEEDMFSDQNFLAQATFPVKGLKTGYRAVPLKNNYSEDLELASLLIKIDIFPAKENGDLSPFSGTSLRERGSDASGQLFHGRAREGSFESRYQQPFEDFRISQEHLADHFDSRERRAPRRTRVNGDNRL

[12] = molecular target: 1-phosphatidylinositol 4,5-bisphosphate phosphodiesterase beta-3 (Homo sapiens, UniProt Q01970); test: Fluorescence-based biochemical high throughput dose response assay to identify inhibitors of phospholipase C isozymes (PLC-B3).
1-phosphatidylinositol 4,5-bisphosphate phosphodiesterase beta-3, sequence (Q01970 whole entry): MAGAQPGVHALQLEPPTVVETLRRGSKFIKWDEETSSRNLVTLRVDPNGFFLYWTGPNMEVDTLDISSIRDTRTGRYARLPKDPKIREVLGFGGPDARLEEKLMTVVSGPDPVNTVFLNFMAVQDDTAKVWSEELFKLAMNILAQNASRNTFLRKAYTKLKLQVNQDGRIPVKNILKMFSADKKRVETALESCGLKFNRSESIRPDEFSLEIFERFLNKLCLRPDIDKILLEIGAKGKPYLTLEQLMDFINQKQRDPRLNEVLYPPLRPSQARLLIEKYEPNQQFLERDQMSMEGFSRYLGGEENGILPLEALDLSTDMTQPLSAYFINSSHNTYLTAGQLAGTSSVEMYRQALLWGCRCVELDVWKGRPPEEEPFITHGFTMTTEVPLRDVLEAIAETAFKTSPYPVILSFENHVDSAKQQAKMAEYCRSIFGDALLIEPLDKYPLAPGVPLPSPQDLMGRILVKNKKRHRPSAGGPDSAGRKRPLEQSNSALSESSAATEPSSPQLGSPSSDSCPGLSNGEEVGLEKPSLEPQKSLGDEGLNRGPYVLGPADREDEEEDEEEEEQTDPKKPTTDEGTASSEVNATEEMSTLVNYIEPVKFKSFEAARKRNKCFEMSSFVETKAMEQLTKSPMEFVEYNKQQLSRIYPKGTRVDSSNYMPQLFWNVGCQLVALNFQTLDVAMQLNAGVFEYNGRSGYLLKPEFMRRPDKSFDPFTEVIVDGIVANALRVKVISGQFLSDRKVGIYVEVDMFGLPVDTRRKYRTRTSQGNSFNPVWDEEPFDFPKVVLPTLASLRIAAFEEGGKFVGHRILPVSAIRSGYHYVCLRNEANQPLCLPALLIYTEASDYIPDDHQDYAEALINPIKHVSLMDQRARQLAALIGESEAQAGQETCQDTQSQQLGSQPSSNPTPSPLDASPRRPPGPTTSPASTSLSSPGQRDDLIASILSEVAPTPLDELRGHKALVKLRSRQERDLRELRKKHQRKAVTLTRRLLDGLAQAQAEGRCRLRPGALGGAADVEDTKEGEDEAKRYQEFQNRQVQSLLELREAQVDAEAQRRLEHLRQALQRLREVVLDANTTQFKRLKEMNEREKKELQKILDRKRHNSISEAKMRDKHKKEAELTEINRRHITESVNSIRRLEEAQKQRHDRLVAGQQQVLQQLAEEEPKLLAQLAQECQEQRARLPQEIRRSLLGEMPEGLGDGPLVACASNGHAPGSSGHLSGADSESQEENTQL

[13] = HepG2 cell cytotoxicity, dose response, cytotoxicity control, cherry-picked samples (AID 1159577); format: functional, cell-based
[14] = molecular target: NAD-dependent protein deacylase sirtuin-5, mitochondrial (Homo sapiens, UniProt Q9NXA8); test: SIRT5 desuccinylase inhibitors, dose response, biochemical, fluorescence imaging, cherry-pick, set 5 (AID 720591);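 note: desuccinylation of succinyl peptide AMC substrate read as fluorescence after trypsin release; potency of inhibitors that lower fluorescence and may act on trypsin instead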
[15] = molecular target: T2, Protein Tat (Human immunodeficiency virus type 1 group M subtype B (isolate HXB2)(HIV-1), UniProt P04608); format: functional;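 note: tat binding to TAR RNA read out by fluorescence polarization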
T2 sequence (P04608 whole entry): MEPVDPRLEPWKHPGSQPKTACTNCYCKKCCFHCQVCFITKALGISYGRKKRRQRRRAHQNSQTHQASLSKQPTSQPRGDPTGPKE

[16] = inhibitors of Vif binding to APOBEC3G peptide, primary screen, biochemical, TR-FRET, GST-Vif 1-94, biotin-A3G peptide, dose response retest (AID 1117319); format: functional;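 note: TR-FRET signal of purified GST-Vif binding a biotinylated A3G peptide; inhibitors lower the FRET signal by blocking Vif and A3G binding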
[17] = cytotoxicity in HPDE-C7 cells, cell-based, fluorescence, HTS (AID 430); format: functional; details: Homo sapiens
[18] = cytotoxicity in KRAS-transformed pancreatic duct cells, primary screen, cell-based, fluorescence, HTS (AID 431); format: functional; details: Homo sapiens;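 note: cell line used: HPDE-C7K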
[19] = molecular target: T3, Mannose-6-phosphate isomerase (Homo sapiens, UniProt P34949); test: human PMI inhibitors, high substrate, primary screen, biochemical, fluorescence intensity, high mannose 6-phosphate (AID 1220)
T3 sequence (P34949 whole entry): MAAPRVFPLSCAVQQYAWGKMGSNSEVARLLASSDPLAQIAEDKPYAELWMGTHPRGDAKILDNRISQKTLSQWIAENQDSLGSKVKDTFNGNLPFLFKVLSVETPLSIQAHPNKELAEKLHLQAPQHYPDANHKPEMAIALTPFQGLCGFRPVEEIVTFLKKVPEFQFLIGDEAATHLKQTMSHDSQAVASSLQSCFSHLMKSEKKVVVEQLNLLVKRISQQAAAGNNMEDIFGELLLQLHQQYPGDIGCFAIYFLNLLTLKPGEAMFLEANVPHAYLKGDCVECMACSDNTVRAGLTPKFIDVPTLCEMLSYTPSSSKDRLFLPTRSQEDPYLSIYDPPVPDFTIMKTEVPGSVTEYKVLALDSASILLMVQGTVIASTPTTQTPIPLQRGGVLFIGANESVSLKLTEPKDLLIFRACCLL

[20] = molecular target: Paired box protein Pax-8 (Homo sapiens, UniProt Q06710); test: inhibitors of PAX8-driven TPO luciferase reporter, dose response, RMG-I cells, cherry-pick (AID 687027); format: functional, cell-based;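 note: luciferase reporter driven by Pax8 target thyroperoxidase promoter measured by SteadyGlo luminescence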
[21] = IOSE-T80 ovarian epithelial cell cytotoxicity, dose response, cytotoxicity control for PAX8 inhibitor project, plate reader, dry powder samples (AID 743045); format: functional, cell-based
[22] = A2780 ovarian cancer cell cytotoxicity, dose response, cytotoxicity control, plate reader, dry powder samples (AID 743046); format: functional, cell-based
[23] = NIH:OVCAR-3 ovarian cancer cell cytotoxicity, dose response, PAX8 inhibitor project, plate reader, dry powder samples (AID 743044); format: functional, cell-based
[24] = IGROV1 ovarian cancer cell cytotoxicity, dose response, PAX8 inhibitor project, plate reader, dry powder samples (AID 743043); format: functional, cell-based; details: IGROV-1
[25] = non-specific cell cytotoxicity, dose response, cytotoxicity control for PAX8 inhibitor project, plate reader, dry powder samples (AID 743021); format: functional, cell-based
[26] = cytotoxicity in OVCAR8 ovarian cancer cells, dose response, PAX8 project, cell-based, plate reader, dry powder samples (AID 743197); format: functional; details: OVCAR-8
[27] = P. falciparum late gametocyte killing, dose response, luminescence (AID 1117278); format: functional, cell-based;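 note: gametocytes exposed to compound for 24 hours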
[28] = Jurkat T cell cytotoxicity, dose response, cytotoxicity control for P. falciparum gametocyte viability project, luminescence (AID 1117277); format: functional, cell-based;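 note: potency reflects loss of cellular ATP meaning fewer viable cells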
[29] = molecular target: Mu-type opioid receptor (Homo sapiens, UniProt P35372); format: functional, cell-based;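 note: U2OS cells with beta-arrestin recruitment to OPRM1 by beta-gal complementation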
[30] = molecular target: 5-hydroxytryptamine receptor 2A (Mus musculus, UniProt P35363); format: functional, cell-based;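 note: CHO-K1 cells with tagged receptor and beta-arrestin; agonist potency measured as compound-induced activation of the receptor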
[31] = cells
[32] = molecular target: Melanocortin receptor 4 (Homo sapiens, UniProt P32245); test: MC4R antagonist potency on cAMP, dose response, cell-based, TR-FRET, biased antagonists (AID 602298); format: functional;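 note: antagonist potency against agonist-stimulated cAMP production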
Melanocortin receptor 4, sequence (P32245 whole entry): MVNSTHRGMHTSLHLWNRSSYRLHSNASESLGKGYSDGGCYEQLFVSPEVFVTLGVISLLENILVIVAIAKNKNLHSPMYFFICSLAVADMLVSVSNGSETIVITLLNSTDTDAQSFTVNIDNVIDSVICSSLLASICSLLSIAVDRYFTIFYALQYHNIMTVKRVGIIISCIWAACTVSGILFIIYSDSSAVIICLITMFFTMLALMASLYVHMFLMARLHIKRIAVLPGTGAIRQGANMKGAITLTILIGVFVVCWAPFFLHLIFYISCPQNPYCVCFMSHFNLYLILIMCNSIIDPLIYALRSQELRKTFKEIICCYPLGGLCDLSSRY

[33] = nonselective inhibitors of cellular cAMP signaling, dose response, counter-screen for MC4R biased antagonist project, cell-based, TR-FRET cAMP detection (AID 602305); format: functional;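 note: U2OS cells stimulated with forskolin near its EC80 as the cAMP inducer; potency is for inhibition of forskolin-stimulated cAMP signaling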
[34] = A549 cell cytotoxicity, dose response, cytotoxicity control, plate reader, cherry-pick, antagonist series (AID 743412); format: functional, cell-based
[35] = PAX2 cell-based inhibition, dose response, selectivity assay for PAX8 inhibitor project, plate reader, dry powder samples (AID 743048); format: functional;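 note: HEK293 cells carrying a WT1 promoter luciferase reporter driven by expressed Pax2; potency is for inhibition of Pax2 driven reporter signal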
[36] = PAX5 activity inhibitors, dose response, selectivity assay for PAX8 inhibitor project, cell-based, plate reader, dry powder samples (AID 743047); format: functional;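 note: HEK293 cells carrying a Pax5 driven CD19 promoter luciferase reporter; potency of inhibitors that lower reporter luminescence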
[37] = cytotoxicity in COV434 cells, dose response, cytotoxicity control for PAX8 inhibitor project, cell-based, plate reader, dry powder, SA7 (AID 743145); format: functional
[38] = cytotoxicity in OV-90 ovarian cancer cells, dose response, PAX8 inhibitor project, cell-based, plate reader, dry powder, SA8 (AID 743149); format: functional
[39] = cytotoxicity dependent on PAX8, dose response, cell-based, plate reader, dry powder (AID 743049); format: functional
[40] = P. falciparum 3D7-ScDHODH growth inhibitors, dose response, SYBR Green, dry powder samples (AID 1159570); format: functional, cell-based;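 note: parasite growth measured after 72 hours of compound exposure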
[41] = HepG2 cell cytotoxicity, dose response, cytotoxicity control, plate reader, dry powder samples (AID 1159569); format: functional, cell-based;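 note: inhibitor potency with signal falling toward the positive control level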
[42] = P. falciparum Dd2 growth inhibitors, dose response, SYBR Green, cherry-picked samples (AID 1159567); format: functional, cell-based
[43] = P. falciparum Dd2 growth inhibitors, dose response, SYBR Green, dry powder samples (AID 1159566); format: functional, cell-based;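 note: potency for growth inhibition with lower SYBR green DNA signal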
[44] = P. falciparum ATP4 D1247Y mutant growth inhibitors, dose response, NITD609-resistant line, SYBR Green, dry powder (AID 1159571); format: functional, cell-based;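 note: parasites synchronized at ring stage by sorbitol before testing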
[45] = molecular target: Genome polyprotein (dengue virus type 2, UniProt P29990); test: Dengue-2 NS5 methyltransferase inhibitors, primary screen, biochemical, confirmation dose response (AID 588689); format: functional
[46] = molecular target: Caspase-6 (Homo sapiens, UniProt P55212); test: human caspase-6 inhibitors, dose response, biochemical, VEID-R110 fluorescence, cherry-pick (AID 720632)

COc1ccc(NC(=O)c2cc3ccccc3cc2OC)cc1
IC50 [1]: > 67.5 µM (inactive)
EC50 [2]: > 67.5 µM (inactive)

CS(=O)(=O)N1c2ccccc2CCC1C(=O)Nc1ccncc1 (stereo not given)
EC50 [3]: 10 µM (inconclusive)

Cc1ccc(-c2nnc(Nc3ccccc3)o2)cc1
AC50 [4]: > 52 µM (inactive)
AC50 [5]: 18.6 µM (active)
AC50 [6]: 25.6 µM (active)
AC50 [7]: > 52 µM (inactive)

COC(=O)C1=CN(C)C=C(C(=O)OC)C1c1ccccc1Cl
AC50 [8]: > 52 µM (inactive)

O=C1/C(=C/c2ccco2)SC(=S)N1c1cccnc1
IC50 [9]: 3.16 µM (not active)
IC50 [10]: > 94.1 µM (inactive)
IC50 [11]: > 122 µM (inactive)
IC50 [12]: > 122 µM (inactive)

C[C@@H]1CN([C@@H](C)CO)C(=O)Cc2cc(NC(=O)Nc3ccc4c(c3)OCO4)ccc2O[C@H]1CN(C)Cc1ccc2c(c1)OCO2
AC50 [13]: > 39 µM (inactive)

COc1ccc(N(C(C)=O)c2nc3ccccc3[nH]2)cc1
AC50 [14]: > 30 µM (inactive)

CCOc1ccc(-n2c(Cc3cc(O)nc(O)n3)nnc2SCC(N)=O)cc1
IC50 [15]: > 100 µM (active)
IC50 [16]: > 100 µM (active)

O=C(CCN1CCN(c2ccccc2F)CC1)c1ccc(Br)cc1
EC50 [17]: 7.29 µM (active)
EC50 [18]: 8.84 µM (active)
IC50 [19]: 38.2 µM (active)

C[C@H](CO)N1C[C@H](C)[C@@H](CN(C)S(=O)(=O)c2ccc(F)cc2)OCCCC[C@H](C)Oc2ccc(NS(=O)(=O)c3ccc(Cl)cc3)cc2C1=O
AC50 [20]: 4.97 µM (active)
AC50 [21]: 13.1 µM (active)
AC50 [22]: 23.3 µM (active)
AC50 [23]: 11.9 µM (active)
AC50 [24]: 35.1 µM (active)
AC50 [25]: 49.2 µM (active)
AC50 [26]: 14.9 µM (active)

CC(C)CNC(=O)c1cccc(NC(=O)COc2ccc([N+](=O)[O-])cc2)c1
IC50 [27]: > 109 µM (inactive)
IC50 [28]: > 83.3 µM (inactive)

CN1CCc2c(sc(NC(=O)Cc3ccccc3)c2C#N)C1
EC50 [29]: 92.5 µM (inactive)
EC50 [30]: 48.2 µM (inactive)
AC50 [31]: 66.1 µM (active)

COc1ccc(CN2Cc3cnnn3-c3ccccc3C2C#N)cc1 (stereo not given)
IC50 [32]: 26.3 µM (inactive)
IC50 [33]: > 64.7 µM (inactive)
AC50 [34]: 20.6 µM (active)
AC50 [4]: > 52 µM (inactive)
AC50 [5]: 27.1 µM (active)
AC50 [6]: 25.8 µM (active)
AC50 [7]: 12.7 µM (active)

COc1ccccc1C#Cc1ccc([C@H]2[C@@H](CO)N(C(=O)C3CCCC3)[C@H]2C#N)cc1
AC50 [35]: 27.6 µM (active)
AC50 [23]: 48.3 µM (active)
AC50 [36]: 23 µM (active)
AC50 [24]: 37.4 µM (active)
AC50 [37]: > 70 µM (inactive)
AC50 [38]: > 70 µM (inactive)
AC50 [39]: 40.7 µM (active)

C[C@@H]1CN([C@@H](C)CO)C(=O)c2c(c3ccccc3n2C)-c2ccccc2CO[C@@H]1CN(C)C(=O)Nc1ccc(-c2ccccc2)cc1
AC50 [40]: 2.36 µM (active)
AC50 [41]: > 100 µM (inactive)
AC50 [42]: 1.93 µM (active)
AC50 [43]: 1.48 µM (active)
AC50 [13]: > 42 µM (inactive)
AC50 [44]: 1.46 µM (active)

CS(=O)(=O)N(CC(=O)Nc1ccc(F)nc1)c1ccccc1Cl
EC50 [3]: 4.4 µM

O=C(O)c1cccc(N2C(=O)c3cc([N+](=O)[O-])cc4cc([N+](=O)[O-])cc(c34)C2=O)c1
IC50 [45]: 26.7 µM (active)
AC50 [46]: 8.47 µM (active)

Cc1ccc(-n2c(Cc3cccn3C)nnc2SCC(=O)Nc2nnc(C)s2)cc1
IC50 [16]: > 100 µM (active)
